The target in one data set is T1, human DGAT1 (Homo sapiens, UniProt O75907).
T1 construct: FLAG (N); made in house; host or cells: SF9 insect cells (pFastBac baculovirus); total cell membranes
T1 sequence (O75907 1-488): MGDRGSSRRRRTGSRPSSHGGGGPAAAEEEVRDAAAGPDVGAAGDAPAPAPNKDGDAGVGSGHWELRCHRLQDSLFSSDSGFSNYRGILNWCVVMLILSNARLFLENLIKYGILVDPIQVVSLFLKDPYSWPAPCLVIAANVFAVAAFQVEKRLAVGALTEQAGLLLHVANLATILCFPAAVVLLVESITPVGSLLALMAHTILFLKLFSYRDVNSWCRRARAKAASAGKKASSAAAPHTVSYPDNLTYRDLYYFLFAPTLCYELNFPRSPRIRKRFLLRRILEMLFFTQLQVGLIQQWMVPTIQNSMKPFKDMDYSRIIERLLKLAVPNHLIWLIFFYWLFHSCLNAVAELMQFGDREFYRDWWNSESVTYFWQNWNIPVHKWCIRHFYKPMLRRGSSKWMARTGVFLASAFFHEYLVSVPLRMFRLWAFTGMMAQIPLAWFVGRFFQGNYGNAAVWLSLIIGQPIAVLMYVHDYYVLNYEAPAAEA
Briefly: Inhibition of DGAT1 activity, FlashPlate assay with DGAT1 membrane preparations and substrate micelles. To be noted: pIC50 = -logIC50, IC50 values expressed in M. It is filed as biochemical. A digest of the protocol:
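FLAG-tagged human DGAT1 membranes (expressed in Sf9 cells) were incubated 120 min at 37° C. in 50 mM Tris-HCl pH 7.4 with 150 mM MgCl2, 1 mM EDTA, 0.2% BSA, 50 μM DAG micelles (PC/PS) and 8.4 μM [^3H]-oleoylCoA. The reaction was stopped with N-ethylmaleimide and read as FlashPlate radioluminescence. Responses were normalized to enzyme/no-enzyme controls to fit dose-response curves.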

One may read the IC50 as the concentration needed to halve the response being measured. Read a high IC50 as weaker potency. What is called melting point is the temperature, or range, at which the solid turns liquid. `O=C(NCc1cccc(N2CCCC2)c1)c1ccc(N2CCN(C(=O)Cc3c(Cl)cccc3Cl)CC2)cc1` [Compound 234]: the melting point worked out at 251.1 °C. At human DGAT1, this compound gave an IC50 of 50.1 nM.
The like results for `O=C(NCc1ccc(-c2ccccn2)cc1)c1ccc(N2CCN(C(=O)Nc3c(Cl)cc(CN4CCCC4)cc3Cl)CC2)cc1` [Compound 236] were, in that order, 217.37 °C and 60.3 nM.
For `COc1ccc(CNC(=O)c2ccc(N3CCN(C(=O)Nc4c(Cl)cc(CN(C(C)C)C(C)C)cc4Cl)CC3)cc2)cc1` [Compound 240], the melting point came out at 208.87 °C. The IC50 at human DGAT1 is 81.3 nM.
For the compound `Cc1cc(Cl)c(CC(=O)N2CCN(c3ccc(C(=O)NCc4cccc(N5CCCC5)c4)cc3)CC2)c(Cl)n1` [Compound 242], the melting point was determined as 172.73 °C. At human DGAT1, this compound had an IC50 of 129 nM.
The compound `COc1ccc(CCNC(=O)c2ccc(N3CCN(C(=O)Nc4c(Cl)cc(CN5CCCC5)cc4Cl)CC3)cc2F)cc1` [Compound 246] showed a melting point of 235 to 237 °C. On human DGAT1, this compound showed an IC50 of 151 nM.
Take `O=C(NCc1ccncc1)c1ccc(N2CCN(C(=O)Cc3c(Cl)cccc3Cl)CC2)cc1` [Compound 251]: the melting point came out at 239.51 °C. 191 nM corresponded to half-maximal inhibition on human DGAT1 (IC50).
The like results for `COc1ccc(CNC(=O)c2ccc(N3CCN(C(=O)Nc4c(Cl)cc(CN5CCCC5)cc4Cl)CC3)cc2F)cc1` [Compound 255] were, in that order, 176.5 to 178 °C and 339 nM.
Compound `O=C(NCc1cccnc1)c1ccc(N2CCN(C(=O)Cc3c(Cl)cccc3Cl)CC2)cc1` [Compound 257] had a melting point of 242.27 °C. The half-maximal inhibitory concentration (IC50) against human DGAT1 is 661 nM.
`O=C(NCc1ccco1)c1ccc(N2CCN(C(=O)Cc3c(Cl)cccc3Cl)CC2)cc1` [Compound 258] registered a melting point of 238.35 °C. At human DGAT1, this compound had an IC50 of 759 nM.
For `C#CCNC(=O)c1ccc(N2CCN(C(=O)Cc3c(Cl)cccc3Cl)CC2)cc1` [Compound 259] the same measures were 247.07 °C and 1350 nM.
The compound `CCOCCNC(=O)c1ccc(N2CCN(C(=O)Cc3c(Cl)cccc3Cl)CC2)cc1` [Compound 262] came in with a melting point of 175.07 °C. The compound also had a half-maximal inhibitory concentration (IC50) on human DGAT1 of 3240 nM.
As for `COc1ccc(CN(C)C(=O)c2ccc(N3CCN(C(=O)Nc4c(Cl)cc(CN5CCCC5)cc4Cl)CC3)cc2)cc1` [Compound 263], the melting point came out at 132.84 °C. On human DGAT1, this compound gave an IC50 of 3720 nM.
In the case of `O=C(NCC1CCOCC1)c1ccc(N2CCN(C(=O)Nc3c(Cl)cc(CN4CCCC4)cc3Cl)CC2)cc1` [Compound 264], the melting point stood at 223.77 °C. On human DGAT1, inhibition was half-maximal at 3980 nM (IC50).
For the compound `CN(Cc1ccccc1)C(=O)c1ccc(N2CCN(C(=O)Nc3c(Cl)cc(CN4CCCC4)cc3Cl)CC2)cc1` [Compound 266], the melting point came to 161.47 °C. At human DGAT1, this compound gave an IC50 of 6170 nM.
On to `COc1ccc(CC(=O)Nc2ccc(N3CCN(C(=O)Nc4c(Cl)cc(CN5CCN(S(C)(=O)=O)CC5)cc4Cl)CC3)cc2)cc1` [Compound 268], for which the melting point was determined as 224.69 °C. The same compound showed an IC50 on human DGAT1 of 1.7 nM.
The like results for `CC(O)c1cc(Cl)c(NC(=O)N2CCC(c3ccc(NC(=O)CCCc4ccccc4)cc3)CC2)c(Cl)c1` (centres unmarked) [Compound 273] were, in that order, 203 to 204 °C and 3.72 nM.
The compound `O=C(CCCc1ccccc1)Nc1ccc(C2CCN(C(=O)Nc3c(Cl)cc(CO)cc3Cl)CC2)cc1` [Compound 276] yielded a melting point of 198 to 199 °C. The half-inhibitory concentration (IC50) against human DGAT1 is 4.27 nM.
In turn, `Cc1ccc(NCCC(=O)Nc2ccc(N3CCN(C(=O)Nc4c(Cl)cc(O)cc4Cl)CC3)cc2)c(C)c1` [Compound 280] returned a melting point of 227 to 228 °C. On human DGAT1, this compound gave an IC50 of 6.76 nM.
Consider `C=CCN(CC(=O)Nc1ccc(N2CCN(C(=O)Nc3c(Cl)cc(OC)cc3Cl)CC2)cc1)Cc1ccc(C)cc1C` [Compound 281], for which the melting point lay within 149 to 150 °C. Also, at human DGAT1, half-maximal inhibition (IC50) was put at 7.24 nM.

The values above are taken from patent publication US8981094B2, “Piperidine/piperazine derivatives” (Janssen Pharmaceutica N.V., priority 2007, dated 2015).
